Assay results as given in paper PMC6926962, “Pentafluorophenyl Platinum(II) Complexes of PTA and Its N-Allyl and N-Benzyl Derivatives: Synthesis, Characterization and Biological Activity” (Materials, 2019).
Read-outs that look alike come from different tables or passages of the source.

How the values were obtained:
[1] = system: A549 (human lung carcinoma); assay: MTT cell viability assay, A549; type: cell-based; conditions: A549, 72 h incubation, read-out: Half maximal inhibitory concentration (IC50)
Method: (§1) NHDF (normal human dermal fibroblasts; PromoCell, C-12302), A549 (human lung carcinoma; ATCC, No CCL-185 ^TM), HeLa (human cervix carcinoma; ATCC, No CCL-2 ^TM) and MCF7 (human breast adenocarcinoma; ATCC, No HTB-22 ^TM) were used. NHDF, A549, HeLa and MCF7 cell lines were cultured in DMEM (Lonza, Basel, Switzerland). Media were supplemented with 10% FBS (Biological Industries, Kibbutz Beit-Haemek, Israel), 4 mM L-glutamine (Biological Industries, Kibbutz Beit-Haemek, Israel), 100 U/mL of penicillin and 100 µg/mL of streptomycin (Sigma, Steinheim, North Rhine-Westphalia, Germany).
(§2) All cell cultures were inserted in a 96-well plate (Eppendorf, Freie und Hansestadt Hamburg, Germany) in a concentration of 10^5 cells per well.
(§3) Compounds 2a–c and ligands 1a–c were dissolved in distilled water and diluted to afford concentrations of 30, 3, 0.3 and 0.03 μg/mL in DMEM and incubated in standard conditions for 72 h, after which the MTT (Sigma, Steinheim, North Rhine-Westphalia, Germany) assay was carried out. 20 µL of MTT (5 mg/mL) was added to each well, incubation for 4 h at 37 °C was implemented, and then 80 µL of lysis buffer was added. The test consists in the enzymatic reduction of the tetrazolium salt MTT in metabolically active cells. The metabolite, purple-colored formazan is measured colorimetrically, using a multiwell plate reader. The optical density (OD) was measured using a spectrophotometric microplate reader (Multiscan Go, Thermo Fisher, Waltham, MA, USA) at 570 nm with reference wavelength of 630 nm. The viability of the investigated cell cultures was estimated using following formula: viability% = (average OD for test group/average OD for control group) × 100. The untreated cells were used as a control group.

[2] = system: NHDF (normal human dermal fibroblasts); assay: MTT cell viability assay, NHDF; type: cell-based; conditions: 72 h incubation, read-out: Half maximal inhibitory concentration (IC50)
Method: as §1, §2, §3

[3] = target: T1, human serum albumin (HSA) (Homo sapiens, UniProt P02768); assay: HSA interaction, fluorescence quenching (Trp-214); type: binding; conditions: for KSV (Stern-Volmer constant): HSA 10 μM, pH 7.40; for ΔH^0 / ΔS^0: van't Hoff; for maximum blue shift of HSA fluorescence emission: HSA emission max 335 nm, λex 295 nm
T1 construct: High purity free-HSA (>96%, Sigma-Aldrich, Steinheim, North Rhine-Westphalia, Germany) was used as purchased; purchased Sigma-Aldrich
Method: (§4) High purity free-HSA (>96%, Sigma-Aldrich, Steinheim, North Rhine-Westphalia, Germany) was used as purchased. The stock solutions of platinum complexes (200 μM) were freshly prepared in double distilled water prior to their use. The HSA solutions (200 μM) were prepared in PBS (pH 7.40). In the final step, the samples contained (protein):(drug) equal 1:0–1:9 in PBS, where CHSA was 10 μM. Measurements were done after 24 h incubation at 300, 305 and 310 K. HSA concentration was determined, using A279 (1 mg/mL) as 0.531 [85].
Emission fluorescence spectra were recorded using Hitachi F-2700 spectrofluorimeter (Tokio, Japan) in 1.0 cm quartz cells in the 300–400 nm range. Trp-214 fluorescence of HSA was measured at 295 nm. The intensity at 335 nm (Trp-214) was used to achieve the quenching mechanism and calculate the binding constants and thermodynamic parameters according to literature reports.

[4] = target: T1, human serum albumin (HSA); assay: HSA interaction, circular dichroism; type: binding; conditions: HSA/complex molar ratio 1/10; free HSA 50.88%
Method: as §4, with “In the final step, the samples contained (protein):(drug) equal 1:0–1:9 in PBS, where CHSA was 10 μM.” left out
Circular dichroism spectra were recorded on a Jasco J-715 spectropolarimeter, over the range of 190–250 nm in 0.1 cm cuvettes. The α-helical content of HSA was calculated from the molar ellipticity (θ) at 208–210 nm using Equations (1) and (2): (1) MRE209=ObservedCD (mdeg)/Cp·n·l·10, (2) α−helix (%)=MRE209−4000/33000−4000×100, where MRE is the mean residue ellipticity, Cp is the molar concentration of the protein, n is the number of amino acid residues (583) and l is the path-length (0.1 cm).

[5] = Octanol-water partition coefficient determination; type: physicochemical; conditions: 24 °C, 10^−3 M in water saturated with octanol
Method: The log(P) values corresponding to the octanol–water partition coefficient was adjusted to the solubility properties of the compounds [84]. Complexes were dissolved in water previously saturated with octanol, to achieve concentrations of 10^−3 M. At 24 °C, 25 mL of octanol saturated with water was introduced into a 100 mL flask equipped and then 25 mL of the aqueous complex solutions was added. The two-phase mixture thus obtained was stirred vigorously for 20 min. After separation of the phases and removal of the respective solvents under vacuum, the attained residues were weighed. Values for log(P) of −0.11, −0.71 and −0.40 for 2a, 2b and 2c, respectively, were obtained.

[6] = system: MCF7 (human breast adenocarcinoma); assay: MTT cell viability assay, MCF7; type: cell-based; conditions: MCF7, 72 h incubation, read-out: Half maximal inhibitory concentration (IC50)
Method: as §1, §2, §3

Solubility in water = type: physicochemical; conditions: 25 °C
[7] = system: HeLa (human cervix carcinoma); assay: MTT cell viability assay, HeLa; type: cell-based; conditions: 72 h incubation, read-out: Half maximal inhibitory concentration (IC50)
Method: as §1, §2, §3

[8] = target: T1, human serum albumin (HSA); conditions: under the same conditions; cited from earlier work
[9] = system: MCF7 (human breast adenocarcinoma); parameters: method as in PMID 31237306; conditions: nd = not detectable, read-out: Half maximal inhibitory concentration (IC50); cited from earlier work
[10] = system: A549 (human lung carcinoma); parameters: method as in PMID 31237306; conditions: nd = not detectable, read-out: Half maximal inhibitory concentration (IC50); cited from earlier work
[11] = system: NHDF (normal human dermal fibroblasts); parameters: method as in PMID 31237306; conditions: nd = not detectable, read-out: Half maximal inhibitory concentration (IC50); cited from earlier work
[12] = system: HeLa (human cervix carcinoma); parameters: method as in PMID 31237306; conditions: nd = not detectable, read-out: Half maximal inhibitory concentration (IC50); cited from earlier work

T1 sequence (P02768 25-609): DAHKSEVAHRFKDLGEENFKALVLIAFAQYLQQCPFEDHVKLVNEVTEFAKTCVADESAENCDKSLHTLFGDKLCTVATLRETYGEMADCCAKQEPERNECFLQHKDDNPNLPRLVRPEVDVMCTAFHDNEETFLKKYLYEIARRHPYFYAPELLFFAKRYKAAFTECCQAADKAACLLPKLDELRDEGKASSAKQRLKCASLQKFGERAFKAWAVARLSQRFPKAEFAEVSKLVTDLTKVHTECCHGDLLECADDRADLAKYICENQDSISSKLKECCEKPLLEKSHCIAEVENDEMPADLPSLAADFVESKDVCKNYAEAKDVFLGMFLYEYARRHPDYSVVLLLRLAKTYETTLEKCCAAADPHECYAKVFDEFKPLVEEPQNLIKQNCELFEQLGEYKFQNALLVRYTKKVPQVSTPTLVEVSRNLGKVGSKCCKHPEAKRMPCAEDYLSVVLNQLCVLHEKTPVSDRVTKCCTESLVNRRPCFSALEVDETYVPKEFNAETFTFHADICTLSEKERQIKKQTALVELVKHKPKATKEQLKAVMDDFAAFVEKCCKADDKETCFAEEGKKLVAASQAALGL

| Compound | IC50 [1] [µM] | IC50 [2] [µM] | KA (association constant) ([3]; 300 K) [M⁻¹] | Kq (quenching rate constant) ([3]; 300 K) [M⁻¹ s⁻¹] | n (number of binding sites) ([3]; 300 K) | ΔG^0 ([3]; 300 K) [kcal/mol] | KSV (Stern-Volmer constant) ([3]; 300 K) [M⁻¹] | ΔH^0 ([3]; 300 K) [kcal/mol] | ΔS^0 ([3]; 300 K) [J mol^−1·K^−1] | KA (association constant) ([3]; 305 K) [M⁻¹] | Kq (quenching rate constant) ([3]; 305 K) [M⁻¹ s⁻¹] | n (number of binding sites) ([3]; 305 K) | ΔG^0 ([3]; 305 K) [kcal/mol] | KSV (Stern-Volmer constant) ([3]; 305 K) [M⁻¹] | ΔH^0 ([3]; 305 K) [kcal/mol] | ΔS^0 ([3]; 305 K) [J mol^−1·K^−1] | log(P) octanol-water partition coefficient [5] | IC50 [6] [µM] | solubility in H2O (S25 °C) (Solubility in water) | IC50 [7] [µM] | other results |
| --- | --- | --- | --- | --- | --- | --- | --- | --- | --- | --- | --- | --- | --- | --- | --- | --- | --- | --- | --- | --- | --- |
| F[B-](F)(F)F.F[B-](F)(F)F.Fc1c(F)c(F)[c]([Pt-3]([Cl])([P+]23CN4CN(C[N+](Cc5ccccc5)(C4)C2)C3)[P+]23CN4CN(C[N+](Cc5ccccc5)(C4)C2)C3)c(F)c1F [Compound 2c, trans-(PtCl(C6F5)(BzPTA)2)(BF4)2] | > 28.1 | 11.2 ± 3.1 | 14500 | 2.72e+12 | 1.25 | -5.71 | 13600 | 1.71 | 103.5 | 15200 | 2.96e+12 | 0.99 | -5.83 | 14800 | 1.71 | 103.5 | −0.40 | > 28.1 | ≈ 3.0 mg mL^−1 | 8.89 ± 4.1 | KA (association constant) ([3]; 310 K): 15900 M⁻¹; Kq (quenching rate constant) ([3]; 310 K): 3.24e+12 M⁻¹ s⁻¹; n (number of binding sites) ([3]; 310 K): 1.59; KSV (Stern-Volmer constant) ([3]; 310 K): 16200 M⁻¹; maximum blue shift of HSA fluorescence emission [3]: ~5 nm; content of α-helix of HSA [4]: 47.17% |
| N.N.[Cl][Pt][Cl] [Cisplatin, cisplatin] | – | – | – | – | – | – | – | – | – | – | – | – | – | – | – | – | – | – | – | – | binding constant Ka for cisplatin-HSA complex [8]: 852 M⁻¹; IC50 [9]: 33.3 ± 4.2 µM; IC50 [10]: 33.3 ± 4.2 µM; IC50 [11]: 16.6 ± 2.1 µM; IC50 [12]: 16.6 ± 3.1 µM |
| C=CC[N+]12CN3CN(CP(C3)C1)C2 [Compound 1b, 1-allyl-1-azonia-3,5-diaza-7-phosphaadamantane] | – | – | – | – | – | – | – | – | – | – | – | – | – | – | – | – | – | – | – | – | IC50 ([1]; Homo sapiens): > 263 µM; IC50 ([2]; Homo sapiens): > 263 µM; IC50 ([6]; Homo sapiens): > 263 µM; IC50 ([7]; Homo sapiens): 65.8 ± 6.6 µM |
| trans-(PtCl(C6F5)(PTA)2) [Compound 2a] | 15.4 ± 5.3 | 26.1 ± 0.68 | – | – | – | – | – | – | – | – | – | – | – | – | – | – | −0.11 | > 42.1 | ≈ 0.35 mg mL^−1 | > 42.1 | – |
| c1ccc(C[N+]23CN4CN(CP(C4)C2)C3)cc1 [Compound 1c, 1-benzyl-1-azonia-3,5-diaza-7-phosphaadamantane] | – | – | – | – | – | – | – | – | – | – | – | – | – | – | – | – | – | – | – | – | IC50 ([1]; Homo sapiens): > 224 µM; IC50 ([2]; Homo sapiens): > 224 µM; IC50 ([6]; Homo sapiens): 72.4 ± 2.4 µM; IC50 ([7]; Homo sapiens): 56 ± 16 µM |
| C=CC[N+]12CN3CN(C1)C[PH]([Pt]([Cl])([c]1c(F)c(F)c(F)c(F)c1F)[PH]14CN5CN(C[N+](CC=C)(C5)C1)C4)(C3)C2.F[B-](F)(F)F.F[B-](F)(F)F [Compound 2b, trans-(PtCl(C6F5)(APTA)2)(BF4)2] | 7.79 ± 1.7 | 26.9 ± 3.5 | 9880 | 1.77e+12 | 1.26 | -5.43 | 8850 | 4.02 | 131.4 | 9900 | 1.96e+12 | 0.96 | -5.57 | 9780 | 4.02 | 131.4 | −0.71 | > 31 | ≈ 4.0 mg mL^−1 | 29.5 ± 1.3 | KA (association constant) ([3]; 310 K): 11000 M⁻¹; Kq (quenching rate constant) ([3]; 310 K): 2.08e+12 M⁻¹ s⁻¹; n (number of binding sites) ([3]; 310 K): 1.24; KSV (Stern-Volmer constant) ([3]; 310 K): 10400 M⁻¹; maximum blue shift of HSA fluorescence emission [3]: ca. 3 nm; content of α-helix of HSA [4]: 46.29% |
